Measured values: patent publication US10821059B2, “Cleansing bars” (priority 2015, dated 2020)

Assay: Piroctone olamine as a phenoxyethanol solution
Format: physicochemical
Details: if heated, for example to 80° C.
Experimental: In some embodiments, piroctone olamine is dissolved in a suitable amount of phenoxyethanol; i.e., all or part of the phenoxyethanol of the composition can be employed as the solvent for the piroctone olamine. Typically, where phenoxyethanol is the solvent for the piroctone olamine pre-mix or pre-solution, the piroctone olamine is present in the pre-mixture or pre-solution in an amount of from 1-30% by weight; for example 5%, 10%, 15%, 20%, 25% or 30% by weight. In such embodiments, the mixture including the piroctone olamine and phenoxyethanol is preferably heated to a temperature of from 50-120° C.; for example from 60-100° C.; for example from 65-80° C.; preferably to effect partial or complete dissolution of the piroctone olamine.
The data above show the feasibility of adding piroctone olamine as a phenoxyethanol solution up to at least 30% w/w during bar soap manufacturing, if heated, for example to 80° C. Furthermore, some piroctone olamine can optionally be supplemented as a solution in a further solvent, such as a fragrance or a fragrance dissolved in a solvent, preferably up to 7.5% at room temperature.

SMILES: Cc1cc(CC(C)CC(C)(C)C)n(O)c(=O)c1.NCCO (stereo not shown) [piroctone olamine]
- piroctone olamine as a phenoxyethanol solution, feasible concentration: at least 30 % w/w
